This note sets out measurements from patent US11884647B2, “Compounds and methods for targeting pathogenic blood vessels” (THE REGENTS OF THE UNIVERSITY OF CALIFORNIA, priority 2019, dated 2024).

The test system of test [1] is tumor endothelial cells (CT26.CL25 colon cancer tumor). In words: Colon CT26 ex vivo model of tumor angiogenesis. It is filed as cell-based. The following applies: Mus musculus, CT26, 48 h, read-out: Cell death. The essentials: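 Explant pieces of CT26 tumor (about 0.075 mm^3) were embedded in Matrigel and grown in endothelial growth medium at 37 °C for about 7 days until endothelial outgrowth appeared, then treated. Cell death was read about 48 h after drug addition by fluorescein diacetate (live) and propidium iodide (dead) staining with red/green imaging.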

For test [2], the system named is tumor endothelial cells (LL/2 lung cancer tumor). In words: Lung LL2 ex vivo model of tumor angiogenesis. To be noted: for cytotoxicity at 40 µM / cytotoxicity at 20 µM: Mus musculus, Endothelial cell, 48 h, read-out: Cell death; for Cell death: drug treatment two days. It is filed as cell-based, mouse. The method in brief:
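Read-out is live/dead fluorescence imaging (fluorescein diacetate green, propidium iodide red, 10 min at 37° C) at 2×, taken e.g. 48 h after drug addition. Fragments of mouse LL2 tumor are cultured in Matrigel with endothelial growth medium, usually 4 days, until new endothelial cells grow out, then treated.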

Take `CCc1ccc(S(=O)(=O)c2cnc3ccc(C(=O)O)cc3c2N2CCC(O)CC2)cc1` [compound 65, 3-((4-ethylphenyl)sulfonyl)-4-(4-hydroxypiperidin-1-yl)quinoline-6-carboxylic acid]: the cytotoxicity at 40 µM in test [1] was 0%; in test [2], 10%.
The corresponding values for `CCc1ccc(S(=O)(=O)c2cnc3ccc(C(=O)O)cc3c2N2CCCN(C)CC2)cc1` [compound 66, 3-((4-ethylphenyl)sulfonyl)-4-(4-methyl-1,4-diazepan-1-yl)quinoline-6-carboxylic acid] are 0% and 10%.
The like results for `CCc1ccc(S(=O)(=O)c2cnc3ccc(C(=O)O)cc3c2N2CCC(N3CCCCC3)CC2)cc1` [compound 67, 4-([1,4′-bipiperidin]-1′-yl)-3-((4-ethylphenyl)sulfonyl)quinoline-6-carboxylic acid] were, in that order, 0% and 10%.
For `CCN(CC)c1c(S(=O)(=O)c2ccc(OC)c(OC)c2)cnc2ccc(OC(F)(F)F)cc12` [compound 68, 3-((3,4-dimethoxyphenyl)sulfonyl)-N,N-diethyl-6-(trifluoromethoxy)quinolin-4-amine], the cytotoxicity at 40 µM in test [1] was 50%; in test [2], 80%.
For `COc1ccc(S(=O)(=O)c2cnc3ccc(OC(F)(F)F)cc3c2NCCO)cc1OC` [compound 69, 2-((3-((3,4-dimethoxyphenyl)sulfonyl)-6-(trifluoromethoxy)quinolin-4-yl)amino)ethan-1-ol], the cytotoxicity at 40 µM in test [1] was 0%. In addition, the “48 hrs (morphology observations after 48 hours)” value in test [2] (Lung LL2 ex vivo, Conc. 40 μm, 48 hrs) amounted to 0. In test [2] (Lung LL2 ex vivo, Conc. 40 μm), this compound yielded a Cell death of 20%.
Consider `COc1ccc(S(=O)(=O)c2cnc3ccc(OC(F)(F)F)cc3c2N2CCCC(O)C2)cc1OC` (centres unmarked) [compound 70, 1-(3-((3,4-dimethoxyphenyl)sulfonyl)-6-(trifluoromethoxy)quinolin-4-yl)piperidin-3-ol], for which the cytotoxicity at 40 µM was found to be 10% in test [1] and 40% in test [2].
With `CCCN(CCC)c1c(S(=O)(=O)c2ccc(OC)c(OC)c2)cnc2ccc(OC(F)(F)F)cc12` [compound 71, 3-((3,4-dimethoxyphenyl)sulfonyl)-N,N-dipropyl-6-(trifluoromethoxy)quinolin-4-amine], the results for the cytotoxicity at 40 µM in test [1] and in test [2] were 0% and 10%, respectively.
The corresponding values for `COc1ccc(S(=O)(=O)c2cnc3ccc(OC(F)(F)F)cc3c2N(CCO)CCO)cc1OC` [compound 72, 2,2′-((3-((3,4-dimethoxyphenyl)sulfonyl)-6-(trifluoromethoxy)quinolin-4-yl)azanediyl)bis(ethan-1-ol)] are 0% and 20%.
On to `CCCCN(CCCC)c1c(S(=O)(=O)c2ccc(OC)c(OC)c2)cnc2ccc(OC(F)(F)F)cc12` [compound 74, N,N-dibutyl-3-((3,4-dimethoxyphenyl)sulfonyl)-6-(trifluoromethoxy)quinolin-4-amine], for which the cytotoxicity at 40 µM was found to be 100% in test [1] and 60% in test [2].
The like results for `CCc1ccc(S(=O)(=O)c2cnc3ccc([N+](=O)[O-])cc3c2N2CCC(O)CC2)cc1` [compound 75, 1-(3-((4-ethylphenyl)sulfonyl)-6-nitroquinolin-4-yl)piperidin-4-ol] were, in that order, 0% and 80%.
The corresponding values for `CCc1ccc(S(=O)(=O)c2cnc3ccc([N+](=O)[O-])cc3c2N2CCCN(C)CC2)cc1` [compound 76, 3-((4-ethylphenyl)sulfonyl)-4-(4-methyl-1,4-diazepan-1-yl)-6-nitroquinoline] are 100% and 20%.
In the case of `CCc1ccc(S(=O)(=O)c2cnc3ccc([N+](=O)[O-])cc3c2N2CCC(N3CCCCC3)CC2)cc1` [compound 77, 4-([1,4′-bipiperidin]-1′-yl)-3-((4-ethylphenyl)sulfonyl)-6-nitroquinoline], the cytotoxicity at 40 µM in test [1] turned out to be 40%; in test [2], 80%.
The like results for `CCc1ccc(S(=O)(=O)c2cnc3ccc([N+](=O)[O-])cc3c2N(CC)CC)cc1` [compound 78, N,N-diethyl-3-((4-ethylphenyl)sulfonyl)-6-nitroquinolin-4-amine] were, in that order, 0% and 40%.
`CCc1ccc(S(=O)(=O)c2cnc3ccc(OC)cc3c2-n2cncn2)cc1` [compound 79, 3-((4-ethylphenyl)sulfonyl)-6-methoxy-4-(1H-1,2,4-triazol-1-yl)quinoline]: the cytotoxicity at 10 µM in test [1] came to 100%. In addition, the cytotoxicity at 20 µM in test [2] was found to be 20%.
The like results for `CCOC(=O)c1ccc2ncc(S(=O)(=O)c3ccc(CC)cc3)c(-n3cncn3)c2c1` [compound 80, ethyl 3-((4-ethylphenyl)sulfonyl)-4-(1H-1,2,4-triazol-1-yl)quinoline-6-carboxylate] were, in that order, 100% and 100%.
In the case of `CCc1ccc(S(=O)(=O)c2cnc3ccc(OC(F)(F)F)cc3c2N(CC)CC)cc1` [compound 81, N,N-diethyl-3-((4-ethylphenyl)sulfonyl)-6-(trifluoromethoxy)quinolin-4-amine], the cytotoxicity at 40 µM in test [1] and in test [2] was 0% in each case.
With `CCc1ccc(S(=O)(=O)c2cnc3ccc(OC(F)(F)F)cc3c2N2CCCC(O)C2)cc1` (centres unmarked) [compound 82, 1-(3-((4-ethylphenyl)sulfonyl)-6-(trifluoromethoxy)quinolin-4-yl)piperidin-3-ol], the cytotoxicity at 40 µM came to 10% in test [1] and 60% in test [2].
On to `CCOC(=O)c1ccc2ncc(S(=O)(=O)c3ccc(CC)cc3)c(NN3CCN(C)CC3)c2c1` [compound 84, ethyl 3-((4-ethylphenyl)sulfonyl)-4-((4-methylpiperazin-1-yl)amino)quinoline-6-carboxylate], for which the cytotoxicity at 40 µM in test [1] and in test [2] was 100% throughout.
Consider `COc1ccc(S(=O)(=O)c2cnc3ccc(OC(F)(F)F)cc3c2NN2CCN(C)CC2)cc1` [compound 85, 3-((4-methoxyphenyl)sulfonyl)-N-(4-methylpiperazin-1-yl)-6-(trifluoromethoxy)quinolin-4-amine], for which the cytotoxicity at 40 µM in test [1] came to 50%; in test [2], 80%.
As for `COc1ccc(S(=O)(=O)c2cnc3ccc(OC(F)(F)F)cc3c2-n2cncn2)cc1` [compound 86, 3-((4-methoxyphenyl)sulfonyl)-4-(1H-1,2,4-triazol-1-yl)-6-(trifluoromethoxy)quinoline], the cytotoxicity at 10 µM in test [1] was found to be 100%. The cytotoxicity at 20 µM in test [2] was 100%.
Regarding `CCCCN(CCCC)c1c(S(=O)(=O)c2ccc(CC)cc2)cnc2ccc(OC(F)(F)F)cc12` [compound 87, N,N-dibutyl-3-((4-ethylphenyl)sulfonyl)-6-(trifluoromethoxy)quinolin-4-amine], the cytotoxicity at 40 µM in test [1] and in test [2] was 0% each time.
For the compound `COc1ccc(S(=O)(=O)c2cnc3ccc(OC(F)(F)F)cc3c2NN2CCN(C)CC2)cc1OC` [compound 88, 3-((3,4-dimethoxyphenyl)sulfonyl)-N-(4-methylpiperazin-1-yl)-6-(trifluoromethoxy)quinolin-4-amine], the cytotoxicity at 40 µM stood at 60% in test [1] and 70% in test [2].
With `COc1ccc(S(=O)(=O)c2cnc3ccc(OC(F)(F)F)cc3c2-n2cncn2)cc1OC` [compound 89, 3-((3,4-dimethoxyphenyl)sulfonyl)-4-(1H-1,2,4-triazol-1-yl)-6-(trifluoromethoxy)quinoline], in test [1], the cytotoxicity at 10 µM was 100%. The cytotoxicity at 20 µM in test [2] was 100%.
Consider `CN1CCN(Nc2c(S(=O)(=O)c3ccc(OC(F)(F)F)cc3)cnc3ccc(OC(F)(F)F)cc23)CC1` [compound 90, N-(4-methylpiperazin-1-yl)-6-(trifluoromethoxy)-3-((4-(trifluoromethoxy)phenyl)sulfonyl)quinolin-4-amine], for which, in test [1], the cytotoxicity at 40 µM was 0%. Also, in test [2] (Lung LL2 ex vivo, Conc. 40 μm), the Cell death was 10%.
With `O=S(=O)(c1ccc(OC(F)(F)F)cc1)c1cnc2ccc(OC(F)(F)F)cc2c1-n1cncn1` [compound 91, 4-(1H-1,2,4-triazol-1-yl)-6-(trifluoromethoxy)-3-((4-(trifluoromethoxy)phenyl)sulfonyl)quinoline], the cytotoxicity at 10 µM in test [1] is 100%. The compound also came in with a Cell death in test [2] (Lung LL2 ex vivo, Conc. 20 μm) of 80%.
In the case of `CCCCOc1ccc(S(=O)(=O)c2cnc3ccc(OC(F)(F)F)cc3c2NN2CCN(C)CC2)cc1` [compound 92, 3-((4-butoxyphenyl)sulfonyl)-N-(4-methylpiperazin-1-yl)-6-(trifluoromethoxy)quinolin-4-amine], the cytotoxicity at 40 µM in test [1] stood at 0%. The cytotoxicity at 20 µM in test [2] turned out to be 10%.
For the compound `CCCCOc1ccc(S(=O)(=O)c2cnc3ccc(OC(F)(F)F)cc3c2-n2cncn2)cc1` [compound 93, 3-((4-butoxyphenyl)sulfonyl)-4-(1H-1,2,4-triazol-1-yl)-6-(trifluoromethoxy)quinoline], in test [1], the cytotoxicity at 10 µM was determined as 100%. The cytotoxicity at 20 µM in test [2] is 100%.
As for `COc1ccc(S(=O)(=O)c2cnc3ccc([N+](=O)[O-])cc3c2NN2CCN(C)CC2)cc1` [compound 94, 3-((4-methoxyphenyl)sulfonyl)-N-(4-methylpiperazin-1-yl)-6-nitroquinolin-4-amine], the cytotoxicity at 40 µM in test [1] worked out at 0%; in test [2] it was 20%.
The like results for `CCc1ccc(S(=O)(=O)c2cnc3ccc(OC(F)(F)F)cc3c2NCCO)cc1` [compound 95, 2-((3-((4-ethylphenyl)sulfonyl)-6-(trifluoromethoxy)quinolin-4-yl)amino)ethan-1-ol] were, in that order, 0% and 10%.
